The text below walks through data of the OligoGym collection.

Oligonucleotides are written 5' to 3', each unit as a sugar letter and its base; * is a phosphorothioate linkage, no mark a phosphodiester; rarer units and linkages stand in square brackets, end groups in braces. Plain capitals give the bases only. Oligonucleotides are given in HELM: sugar(base)linkage, 5' to 3'; d 2'-deoxyribose, r ribose, m 2'-O-methylribose, p phosphate. ss, as = sense and antisense strand; d = 2'-deoxy (DNA); r = 2'-OH (RNA)
Also: test concentration or dose not given here.

One data set addresses UBE2V1. The data set can be described thus: reporter assay of Huesken 2005. The note with it: siRNA. On the technique in general: Reporter assays use an easily measured gene product as a stand-in for the process of interest.
Substance “sense rArArArGrGrArGrUrArArArArGrUrCrCrCrUrCdTdT / antisense rGrArGrGrGrArCrUrUrUrUrArCrUrCrCrUrUrUdGdC” came in with a normalised inhibition (eCFP-eYFP dual reporter) of 65.6%.

With “sense rArArArUrUrUrCrArCrUrGrCrArArArGrGrArGdTdT / antisense rCrUrCrCrUrUrUrGrCrArGrUrGrArArArUrUrUdTdC”, the normalised inhibition (eCFP-eYFP dual reporter) stood at 45.8%.

Take “sense rArArCrCrGrArArUrArUrArCrArGrCrCrUrUrAdTdT / antisense rUrArArGrGrCrUrGrUrArUrArUrUrCrGrGrUrUdTdT”: the normalised inhibition (eCFP-eYFP dual reporter) came out at 96.1%.

In turn, “sense rArArCrCrUrArGrArArArArUrUrUrCrArCrUrGdTdT / antisense rCrArGrUrGrArArArUrUrUrUrCrUrArGrGrUrUdCdA” came in with a normalised inhibition (eCFP-eYFP dual reporter) of 49.4%.

The substance “sense rArArGrArGrCrCrArUrArUrCrArGrUrGrCrUrAdTdT / antisense rUrArGrCrArCrUrGrArUrArUrGrGrCrUrCrUrUdGdG” had a normalised inhibition (eCFP-eYFP dual reporter) of 84.4%.

“sense rArArUrArUrArCrArGrCrCrUrUrArArArArUrAdTdT / antisense rUrArUrUrUrUrArArGrGrCrUrGrUrArUrArUrUdCdG”: the normalised inhibition (eCFP-eYFP dual reporter) amounted to 82.9%.

Take “sense rArArUrGrGrArGrUrGrGrUrGrGrArCrCrCrArAdTdT / antisense rUrUrGrGrGrUrCrCrArCrCrArCrUrCrCrArUrUdAdG”: the normalised inhibition (eCFP-eYFP dual reporter) was 83.5%.

“sense rArArUrUrCrArUrArUrArGrCrArUrCrArArArGdTdT / antisense rCrUrUrUrGrArUrGrCrUrArUrArUrGrArArUrUdCdT”: the normalised inhibition (eCFP-eYFP dual reporter) amounted to 70%.

The substance “sense rArCrCrUrArGrArArArArUrUrUrCrArCrUrGrCdTdT / antisense rGrCrArGrUrGrArArArUrUrUrUrCrUrArGrGrUdTdC” displayed a normalised inhibition (eCFP-eYFP dual reporter) of 36.5%.

The substance “sense rArGrArArArGrGrArGrUrArGrGrArGrArUrGrGdTdT / antisense rCrCrArUrCrUrCrCrUrArCrUrCrCrUrUrUrCrUdGdG” gave a normalised inhibition (eCFP-eYFP dual reporter) of 58.6%.

Substance “sense rArGrArArGrGrCrCrArGrArArArGrGrArGrUrAdTdT / antisense rUrArCrUrCrCrUrUrUrCrUrGrGrCrCrUrUrCrUdTdC” yielded a normalised inhibition (eCFP-eYFP dual reporter) of 86.1%.

The substance “sense rArGrArCrUrUrGrArArCrCrUrArGrArArArArUdTdT / antisense rArUrUrUrUrCrUrArGrGrUrUrCrArArGrUrCrUdTdC” showed a normalised inhibition (eCFP-eYFP dual reporter) of 71.4%.

On to “sense rArGrArGrCrCrArUrArUrCrArGrUrGrCrUrArGdTdT / antisense rCrUrArGrCrArCrUrGrArUrArUrGrGrCrUrCrUdTdG”, for which the normalised inhibition (eCFP-eYFP dual reporter) turned out to be 90.3%.

On to “sense rArGrArUrGrGrArCrArGrGrGrArUrGrArUrArAdTdT / antisense rUrUrArUrCrArUrCrCrCrUrGrUrCrCrArUrCrUdTdG”, for which the normalised inhibition (eCFP-eYFP dual reporter) stood at 90%.

In turn, “sense rArGrCrUrGrGrGrGrUrCrUrArGrArArGrArUrGdTdT / antisense rCrArUrCrUrUrCrUrArGrArCrCrCrCrArGrCrUdAdA” had a normalised inhibition (eCFP-eYFP dual reporter) of 73%.

In the case of “sense rArGrGrArArGrArCrUrUrGrArArCrCrUrArGrAdTdT / antisense rUrCrUrArGrGrUrUrCrArArGrUrCrUrUrCrCrUdTdC”, the normalised inhibition (eCFP-eYFP dual reporter) came to 78%.

Consider “sense rArGrGrArGrArUrGrGrCrArCrArGrUrUrArGrCdTdT / antisense rGrCrUrArArCrUrGrUrGrCrCrArUrCrUrCrCrUdAdC”, for which the normalised inhibition (eCFP-eYFP dual reporter) was 60.9%.

The substance “sense rArGrGrArGrUrArGrGrArGrArUrGrGrCrArCrAdTdT / antisense rUrGrUrGrCrCrArUrCrUrCrCrUrArCrUrCrCrUdTdT” returned a normalised inhibition (eCFP-eYFP dual reporter) of 92.3%.

For the substance “sense rArGrUrArArArArGrUrCrCrCrUrCrGrCrArArUdTdT / antisense rArUrUrGrCrGrArGrGrGrArCrUrUrUrUrArCrUdCdC”, the normalised inhibition (eCFP-eYFP dual reporter) was determined as 91%.

With “sense rArGrUrCrCrCrUrCrGrCrArArUrUrUrCrCrGrAdTdT / antisense rUrCrGrGrArArArUrUrGrCrGrArGrGrGrArCrUdTdT”, the normalised inhibition (eCFP-eYFP dual reporter) was 96%.

On to “sense rArGrUrUrCrUrArArUrGrGrArGrUrGrGrUrGrGdTdT / antisense rCrCrArCrCrArCrUrCrCrArUrUrArGrArArCrUdAdT”, for which the normalised inhibition (eCFP-eYFP dual reporter) turned out to be 56.8%.

Substance “sense rArUrUrUrCrArCrUrGrCrArArArGrGrArGrUrAdTdT / antisense rUrArCrUrCrCrUrUrUrGrCrArGrUrGrArArArUdTdT” had a normalised inhibition (eCFP-eYFP dual reporter) of 95%.

Turning to “sense rCrArArArGrUrUrGrUrCrCrUrGrCrArArGrArGdTdT / antisense rCrUrCrUrUrGrCrArGrGrArCrArArCrUrUrUrGdAdT”, the normalised inhibition (eCFP-eYFP dual reporter) worked out at 71.5%.

On to “sense rCrArArGrArGrCrUrUrCrGrGrCrGrCrCrUrArAdTdT / antisense rUrUrArGrGrCrGrCrCrGrArArGrCrUrCrUrUrGdCdA”, for which the normalised inhibition (eCFP-eYFP dual reporter) amounted to 84.1%.

For another data set, the target named is SOST. Put plainly: reporter assay of Huesken 2005. The note with it: siRNA.
For “RNA1{r(G)p.r(U)p.r(G)p.r(G)p.r(U)p.r(G)p.r(A)p.r(G)p.r(G)p.r(C)p.r(G)p.r(C)p.r(C)p.r(G)p.r(C)p.r(G)p.r(C)p.r(G)p.r(C)p.d(T)p.d(T)}|RNA2{r(G)p.r(C)p.r(G)p.r(C)p.r(G)p.r(C)p.r(G)p.r(G)p.r(C)p.r(G)p.r(C)p.r(C)p.r(U)p.r(C)p.r(A)p.r(C)p.r(C)p.r(A)p.r(C)p.d(C)p.d(G)}$$$RNA1{StrandType:ss}|RNA2{StrandType:as}$”, the normalised inhibition (eCFP-eYFP dual reporter) was found to be 65.2%.

Turning to “RNA1{r(G)p.r(U)p.r(G)p.r(U)p.r(C)p.r(C)p.r(C)p.r(G)p.r(G)p.r(U)p.r(G)p.r(G)p.r(U)p.r(G)p.r(A)p.r(G)p.r(G)p.r(C)p.r(G)p.d(T)p.d(T)}|RNA2{r(C)p.r(G)p.r(C)p.r(C)p.r(U)p.r(C)p.r(A)p.r(C)p.r(C)p.r(A)p.r(C)p.r(C)p.r(G)p.r(G)p.r(G)p.r(A)p.r(C)p.r(A)p.r(C)p.d(A)p.d(G)}$$$RNA1{StrandType:ss}|RNA2{StrandType:as}$”, the normalised inhibition (eCFP-eYFP dual reporter) is 62.9%.

“RNA1{r(U)p.r(A)p.r(G)p.r(U)p.r(G)p.r(G)p.r(A)p.r(G)p.r(G)p.r(G)p.r(C)p.r(C)p.r(A)p.r(G)p.r(G)p.r(G)p.r(G)p.r(U)p.r(G)p.d(T)p.d(T)}|RNA2{r(C)p.r(A)p.r(C)p.r(C)p.r(C)p.r(C)p.r(U)p.r(G)p.r(G)p.r(C)p.r(C)p.r(C)p.r(U)p.r(C)p.r(C)p.r(A)p.r(C)p.r(U)p.r(A)p.d(C)p.d(A)}$$$RNA1{StrandType:ss}|RNA2{StrandType:as}$”: the normalised inhibition (eCFP-eYFP dual reporter) was found to be 72%.

Regarding “RNA1{r(U)p.r(C)p.r(A)p.r(A)p.r(G)p.r(A)p.r(A)p.r(U)p.r(G)p.r(A)p.r(U)p.r(G)p.r(C)p.r(C)p.r(A)p.r(C)p.r(G)p.r(G)p.r(A)p.d(T)p.d(T)}|RNA2{r(U)p.r(C)p.r(C)p.r(G)p.r(U)p.r(G)p.r(G)p.r(C)p.r(A)p.r(U)p.r(C)p.r(A)p.r(U)p.r(U)p.r(C)p.r(U)p.r(U)p.r(G)p.r(A)p.d(A)p.d(C)}$$$RNA1{StrandType:ss}|RNA2{StrandType:as}$”, the normalised inhibition (eCFP-eYFP dual reporter) was 68.7%.

Consider “RNA1{r(U)p.r(C)p.r(A)p.r(A)p.r(G)p.r(G)p.r(A)p.r(C)p.r(U)p.r(U)p.r(C)p.r(G)p.r(G)p.r(G)p.r(A)p.r(C)p.r(C)p.r(G)p.r(A)p.d(T)p.d(T)}|RNA2{r(U)p.r(C)p.r(G)p.r(G)p.r(U)p.r(C)p.r(C)p.r(C)p.r(G)p.r(A)p.r(A)p.r(G)p.r(U)p.r(C)p.r(C)p.r(U)p.r(U)p.r(G)p.r(A)p.d(G)p.d(C)}$$$RNA1{StrandType:ss}|RNA2{StrandType:as}$”, for which the normalised inhibition (eCFP-eYFP dual reporter) is 61.3%.

“RNA1{r(U)p.r(C)p.r(G)p.r(G)p.r(A)p.r(G)p.r(C)p.r(U)p.r(C)p.r(A)p.r(A)p.r(G)p.r(G)p.r(A)p.r(C)p.r(U)p.r(U)p.r(C)p.r(G)p.d(T)p.d(T)}|RNA2{r(C)p.r(G)p.r(A)p.r(A)p.r(G)p.r(U)p.r(C)p.r(C)p.r(U)p.r(U)p.r(G)p.r(A)p.r(G)p.r(C)p.r(U)p.r(C)p.r(C)p.r(G)p.r(A)p.d(C)p.d(T)}$$$RNA1{StrandType:ss}|RNA2{StrandType:as}$” returned a normalised inhibition (eCFP-eYFP dual reporter) of 61.8%.

“RNA1{r(U)p.r(C)p.r(G)p.r(G)p.r(C)p.r(C)p.r(G)p.r(C)p.r(G)p.r(G)p.r(C)p.r(A)p.r(A)p.r(G)p.r(U)p.r(G)p.r(G)p.r(U)p.r(G)p.d(T)p.d(T)}|RNA2{r(C)p.r(A)p.r(C)p.r(C)p.r(A)p.r(C)p.r(U)p.r(U)p.r(G)p.r(C)p.r(C)p.r(G)p.r(C)p.r(G)p.r(G)p.r(C)p.r(C)p.r(G)p.r(A)p.d(T)p.d(G)}$$$RNA1{StrandType:ss}|RNA2{StrandType:as}$” came in with a normalised inhibition (eCFP-eYFP dual reporter) of 66%.

“RNA1{r(U)p.r(G)p.r(C)p.r(A)p.r(A)p.r(G)p.r(C)p.r(G)p.r(C)p.r(C)p.r(U)p.r(C)p.r(A)p.r(C)p.r(C)p.r(C)p.r(G)p.r(C)p.r(U)p.d(T)p.d(T)}|RNA2{r(A)p.r(G)p.r(C)p.r(G)p.r(G)p.r(G)p.r(U)p.r(G)p.r(A)p.r(G)p.r(G)p.r(C)p.r(G)p.r(C)p.r(U)p.r(U)p.r(G)p.r(C)p.r(A)p.d(C)p.d(T)}$$$RNA1{StrandType:ss}|RNA2{StrandType:as}$” had a normalised inhibition (eCFP-eYFP dual reporter) of 66.2%.

“RNA1{r(U)p.r(G)p.r(C)p.r(G)p.r(G)p.r(C)p.r(C)p.r(C)p.r(G)p.r(G)p.r(C)p.r(G)p.r(C)p.r(G)p.r(C)p.r(C)p.r(U)p.r(G)p.r(C)p.d(T)p.d(T)}|RNA2{r(G)p.r(C)p.r(A)p.r(G)p.r(G)p.r(C)p.r(G)p.r(C)p.r(G)p.r(C)p.r(C)p.r(G)p.r(G)p.r(G)p.r(C)p.r(C)p.r(G)p.r(C)p.r(A)p.d(C)p.d(T)}$$$RNA1{StrandType:ss}|RNA2{StrandType:as}$” had a normalised inhibition (eCFP-eYFP dual reporter) of 52.1%.

In turn, “RNA1{r(U)p.r(U)p.r(C)p.r(A)p.r(C)p.r(C)p.r(C)p.r(G)p.r(C)p.r(U)p.r(A)p.r(C)p.r(G)p.r(U)p.r(G)p.r(A)p.r(C)p.r(C)p.r(G)p.d(T)p.d(T)}|RNA2{r(C)p.r(G)p.r(G)p.r(U)p.r(C)p.r(A)p.r(C)p.r(G)p.r(U)p.r(A)p.r(G)p.r(C)p.r(G)p.r(G)p.r(G)p.r(U)p.r(G)p.r(A)p.r(A)p.d(G)p.d(T)}$$$RNA1{StrandType:ss}|RNA2{StrandType:as}$” registered a normalised inhibition (eCFP-eYFP dual reporter) of 57.5%.
